Source: PMC8766838, “Discovery of Small Molecule NSC290956 as a Therapeutic Agent for KRas Mutant Non-Small-Cell Lung Cancer” (Frontiers in Pharmacology, 2022)
pKd: −log10 of the molar value.

Columns and labels:
HRasG60A = target: T1, HRasG60A (Homo sapiens, UniProt P01112, G60A); assay: SPR (steady-state); circular dichroism in support; type: binding
T1 construct: gene HRAS

KRas = target: T2, KRas (Homo sapiens, UniProt P01116, G12S); assay: CETSA in A549 cells ([…]°C stabilization at […]); type: cell-based
T2 construct: endogenous, A549 cells

T1 sequence (P01112 1-166 G60A): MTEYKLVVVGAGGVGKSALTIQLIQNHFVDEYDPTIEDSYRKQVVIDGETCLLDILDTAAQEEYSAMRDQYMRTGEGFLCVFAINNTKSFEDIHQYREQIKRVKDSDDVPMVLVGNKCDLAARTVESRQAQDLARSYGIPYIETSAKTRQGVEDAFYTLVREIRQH

In the case of `O=C1CSC2(CCN(CCCN3c4ccccc4Sc4ccc(Cl)cc43)CC2)N1` [NSC290956, 1-Thia-4,8-diazaspiro[4.5]decan-3-one,8-[3-(2-chloro-10H-phenothiazin-10-yl)propyl]], the pKd (HRasG60A) was 4.67 and the “CETSA in A549 cells (4-6°C stabilization at 25 μM)” value (KRas) was “target engagement of NSC290956 in KRas-addicted H358 (KRasG12C) and A549 (KRasG12S) cell lines”.
